Assay results published in patent US9359338B2, “Cyclopropanecarboxamido-substitute aromatic compounds as anti-tumor agents” (Crown Bioscience Inc. (Taiwan), priority 2012, dated 2016).
Read-outs that look alike come from different tables or passages of the source.

Columns and labels:
[1] = target: KDR kinase (790-1356 AA) (Homo sapiens (Human), UniProt P35968); experiment: Inhibitory activity at KDR kinase (Lance Ultra Ulight-TK assay); assay type: biochemical
Summary of the method: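 TR-FRET (Eu-anti-phosphotyrosine PT66) with 20 nM KDR preincubated with compound 20 min at 30 °C in HEPES pH 7.5 buffer with Mg2+/Mn2+, 0.5% DMSO.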

[2] = target: B-Raf kinase (Homo sapiens (Human), UniProt P15056); experiment: Inhibitory activity at B-Raf kinase (ADP-GLO assay); assay type: biochemical
Description: Inhibitory Activity of Compounds at B-Raf Kinase
• [Experimental method]: Use ADP-GLO™ assay kit from Promega to evaluate the inhibitory activity of compounds at B-Raf • [Instrument]: PerKinElmer's ENVISION plate reader • [Material]: Optiplate-384 well plate (PerKinElmer), kinase buffer (50 mM Hepes pH7.5, 1 mM EGTA, 2 mM DTT, 10 mM Mg^2+, 0.05% BSA), B-Raf kinase (Millipore, catalogue #14-530-K), GST-MEK1 substrate (Carna, catalogue #07-141-10), Super pure ATP (Promega), ADP-GLO™ assay kit (Promega, catalogue # V9102), DMSO (Sigma, catalogue #34869), purified water (Millipore, type: Milli-Q). • [Study conditions]: Mix B-Raf kinase (final concentration: 5 nM) and compound (DMSO final concentration: 0.25%) and preincubate at 30° C. for 20 min, then add ATP (final concentration: 6 μM) and reaction substrate (final concentration: 30 nM), React for 2 hrs at 30° C. After reaction, add ADP-GLO™ reagent, react for 40 min at room temperature, then add ADP-GLO™ detecting agent, react for 30 min at room temperature. After that, use ENVSION to measure the […]. • [Samples]: Compounds in the examples and Sorafenib (positive control) • [Data analysis]: Use CBIS data analysis software to calculate IC50 values

[3] = system: pERK in MDA-MB-231 cells; experiment: Inhibitory activity at pERK (In Cell Western, MDA-MB-231 cells); assay type: cell-based; conditions: Homo sapiens
Summary of the method: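 MDA-MB-231 cells were treated 2 h at 37 °C with 8 compound concentrations in 3-fold dilutions from 30 μM top (0.3% DMSO, DMEM with 0.1% BSA). Cells were then fixed, methanol-permeabilized and immunostained for pERK with PI counterstain. Fluorescence was read on Acumen and IC50 calculated.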

[4] = system: PLC-PRF-5 cells; experiment: Inhibition of proliferation of PLC-PRF-5 cells (ATPlite); assay type: cell-based; conditions: Homo sapiens
Summary of the method: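 PLC-PRF-5 cells in DMEM/10% FBS, seeded 2 h before compound; 8-point 3-fold dilutions from 30 μM final top, 0.3% DMSO. After 96 h at 37 °C, 5% CO2, ATP content read by ATPlite luminescence; IC50 calculated.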

[5] = MDA-MB-231, MDA-MB-231 cells, read-out: MDA-MB-231 pERK IC50
[6] = PLC-PRF-5, PLC-PRF-5 cells, read-out: PLC-PRF-5 cell proliferation IC50
[7] = MDA-MB-231, read-out: MDA-MB-231 pERK IC50
[8] = PLC-PRF-5, read-out: PLC-PRF-5 cell proliferation IC50

B-Raf kinase, sequence (P15056 416-766): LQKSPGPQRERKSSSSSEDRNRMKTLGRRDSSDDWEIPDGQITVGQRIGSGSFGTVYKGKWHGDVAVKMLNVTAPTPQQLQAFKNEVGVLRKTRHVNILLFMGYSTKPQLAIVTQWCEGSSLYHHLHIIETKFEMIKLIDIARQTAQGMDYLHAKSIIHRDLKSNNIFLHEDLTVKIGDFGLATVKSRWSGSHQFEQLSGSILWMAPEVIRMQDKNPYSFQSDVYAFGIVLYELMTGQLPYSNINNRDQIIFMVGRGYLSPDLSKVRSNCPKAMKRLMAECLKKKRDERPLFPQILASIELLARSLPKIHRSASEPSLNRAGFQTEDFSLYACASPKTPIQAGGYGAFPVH
KDR kinase (790-1356 AA), sequence (P35968 790-1356): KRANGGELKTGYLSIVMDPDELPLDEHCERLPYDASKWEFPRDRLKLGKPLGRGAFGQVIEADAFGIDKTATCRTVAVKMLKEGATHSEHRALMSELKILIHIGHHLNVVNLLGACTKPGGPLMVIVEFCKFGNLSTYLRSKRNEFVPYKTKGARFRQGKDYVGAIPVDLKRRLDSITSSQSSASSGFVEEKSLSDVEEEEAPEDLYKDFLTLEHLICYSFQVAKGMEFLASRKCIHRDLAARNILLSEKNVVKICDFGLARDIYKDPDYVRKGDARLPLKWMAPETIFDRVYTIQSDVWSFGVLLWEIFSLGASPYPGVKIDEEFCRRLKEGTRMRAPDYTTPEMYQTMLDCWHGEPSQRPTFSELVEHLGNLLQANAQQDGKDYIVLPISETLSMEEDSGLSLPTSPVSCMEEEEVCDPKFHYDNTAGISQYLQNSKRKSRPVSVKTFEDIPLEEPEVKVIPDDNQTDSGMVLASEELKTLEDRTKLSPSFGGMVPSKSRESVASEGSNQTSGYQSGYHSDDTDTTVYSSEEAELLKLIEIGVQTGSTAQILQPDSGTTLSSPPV

## Cc1cc(NC(=O)Nc2cc(C(F)(F)F)ccc2F)cnc1Oc1ccnc(NC(=O)C2CC2)c1 [Exe. 124]
[1]
  IC50: 13.8 nM
[2]
  IC50: 10.4 nM
[3]; [5]
  IC50: 19.4 nM
[4]; [6]
  IC50: 160 nM

## COc1ccc(NC(=O)Nc2cnc(Oc3ccnc(NC(=O)C4CC4)c3)c(C)c2)cc1C(F)(F)F [Exe. 125]
[1]
  IC50: 8.7 nM
[2]
  IC50: 8.6 nM
[3]; [5]
  IC50: 4.7 nM
[4]; [6]
  IC50: 1720 nM

## Cc1cc(NC(=O)Nc2cc(OC(C)C)cc(C(F)(F)F)c2)cnc1Oc1ccnc(NC(=O)C2CC2)c1 [Exe. 126]
[1]
  IC50: 30.2 nM
[2]
  IC50: 61.4 nM
[3]; [5]
  IC50: 24.3 nM
[4]; [6]
  IC50: 2440 nM

## Cc1cc(Oc2ccnc(NC(=O)C3CC3)c2)ncc1NC(=O)Nc1cc(C(F)(F)F)ccc1F [Exe. 127]
[1]
  IC50: 11.8 nM
[2]
  IC50: 7.2 nM
[3]; [5]
  IC50: 11.6 nM
[4]; [6]
  IC50: 642 nM

## Cc1cc(Oc2ccnc(NC(=O)C3CC3)c2)ncc1NC(=O)Nc1cc(C(C)(F)F)ccc1F [Exe. 128]
[1]
  IC50: 9.8 nM
[2]
  IC50: 6.2 nM
[3]; [5]
  IC50: 38 nM
[4]; [6]
  IC50: 819 nM

## CS(=O)(=O)c1cc(NC(=O)Nc2ccc(Oc3ccnc(NC(=O)C4CC4)c3)nc2)cc(C(F)(F)F)c1 [Exe. 130]
[1]
  IC50: 4.6 nM
[2]
  IC50: 29.7 nM
[3]; [5]
  IC50: 725 nM
[4]; [6]
  IC50: 4990 nM

## CN1CCC(Nc2cc(NC(=O)Nc3ccc(Oc4ccnc(NC(=O)C5CC5)c4)nc3)cc(C(F)(F)F)c2)CC1 [Exe. 131]
[1]
  IC50: 6.1 nM
[2]
  IC50: 12.5 nM
[3]; [5]
  IC50: > 1000 nM
[4]; [6]
  IC50: 10500 nM

## O=C(Nc1ccc(Oc2ccnc(NC(=O)C3CC3)c2)nc1)Nc1cc(N2CCS(=O)(=O)CC2)cc(C(F)(F)F)c1 [Exe. 132]
[1]
  IC50: 10 nM
[2]
  IC50: 39 nM
[3]; [5]
  IC50: 341 nM
[4]; [6]
  IC50: 5910 nM

## N#Cc1ccc(NC(=O)Nc2ccc(Oc3ccnc(NC(=O)C4CC4)c3)cn2)cc1C(F)(F)F [Exe. 133]
[1]
  IC50: 9.1 nM
[2]
  IC50: 25 nM
[3]; [7]
  IC50: 23.6 nM
[4]; [8]
  IC50: 1020 nM

## CS(=O)(=O)c1cc(NC(=O)Nc2ccc(Oc3ccnc(NC(=O)C4CC4)c3)cn2)cc(C(F)(F)F)c1 [Exe. 136]
[1]
  IC50: 6.6 nM
[2]
  IC50: 29 nM
[3]; [5]
  IC50: 46 nM
[4]; [6]
  IC50: 470 nM

## O=C(Nc1ccc(Oc2ccnc(NC(=O)C3CC3)c2)cc1)Nc1ccc(Cl)c(C(F)(F)F)c1 [Exe. 137]
[1]
  IC50: 10.2 nM
[2]
  IC50: 11.3 nM
[3]; [5]
  IC50: 7.8 nM
[4]; [6]
  IC50: 5960 nM

## O=C(Nc1ccc(Oc2ccnc(NC(=O)C3CC3)c2)cc1)Nc1ccc(F)c(C(F)(F)F)c1 [Exe. 138]
[1]
  IC50: 10.5 nM
[2]
  IC50: 26 nM
[3]; [5]
  IC50: 9.1 nM
[4]; [6]
  IC50: 1510 nM

## N#Cc1ccc(NC(=O)Nc2ccc(Oc3ccnc(NC(=O)C4CC4)c3)cc2)cc1C(F)(F)F [Exe. 139]
[1]
  IC50: 10 nM
[2]
  IC50: 13 nM
[3]; [7]
  IC50: 10.9 nM
[4]; [8]
  IC50: 654 nM

## O=C(Nc1ccc(Oc2ccnc(NC(=O)C3CC3)c2)cc1)Nc1cc(F)cc(C(F)(F)F)c1 [Exe. 141]
[1]
  IC50: 7.1 nM
[2]
  IC50: 125 nM
[3]; [5]
  IC50: 40.4 nM
[4]; [6]
  IC50: 642 nM

## O=C(Nc1ccc(Oc2ccnc(NC(=O)C3CC3)c2)cc1)Nc1cc(C(F)(F)F)ccc1Cl [Exe. 142]
[1]
  IC50: 10.4 nM
[2]
  IC50: 39 nM
[3]; [5]
  IC50: 13.9 nM
[4]; [6]
  IC50: 642 nM

## CN1CCC(c2cc(NC(=O)Nc3ccc(Oc4ccnc(NC(=O)C5CC5)c4)cc3)cc(C(F)(F)F)c2)CC1 [Exe. 143]
[1]
  IC50: 9.5 nM
[2]
  IC50: 5.5 nM
[3]; [5]
  IC50: 13.4 nM
[4]; [6]
  IC50: 892 nM

## O=C(Nc1ccc(Oc2ccnc(NC(=O)C3CC3)c2)cc1)Nc1cccc(C(F)(F)F)c1 [Exe. 144]
[1]
  IC50: 11.4 nM
[2]
  IC50: 30 nM
[3]; [5]
  IC50: 6 nM
[4]; [6]
  IC50: 403 nM

## CS(=O)(=O)c1cc(NC(=O)Nc2ccc(Oc3ccnc(NC(=O)C4CC4)c3)cc2)cc(C(F)(F)F)c1 [Exe. 145]
[1]
  IC50: 7.6 nM
[2]
  IC50: 5.1 nM
[3]; [5]
  IC50: 20.7 nM
[4]; [6]
  IC50: 1670 nM

## O=C(Nc1ccc(Oc2ccnc(NC(=O)C3CC3)c2)cc1)Nc1cccc(OC(F)(F)F)c1 [Exe. 146]
[1]
  IC50: 7.8 nM
[2]
  IC50: 14 nM
[3]; [5]
  IC50: 11.4 nM
[4]; [6]
  IC50: 689 nM

## CC(F)(F)c1ccnc(NC(=O)Nc2ccc(Oc3ccnc(NC(=O)C4CC4)c3)cc2)c1 [Exe. 147]
[1]
  IC50: 11.1 nM
[2]
  IC50: 15 nM
[3]; [5]
  IC50: 23.8 nM
[4]; [6]
  IC50: 1160 nM

## CC(F)(F)c1ccc(F)c(NC(=O)Nc2ccc(Oc3ccnc(NC(=O)C4CC4)c3)cc2)c1 [Exe. 148]
[1]
  IC50: 6.2 nM
[2]
  IC50: 16 nM
[3]; [5]
  IC50: 7.7 nM
[4]; [6]
  IC50: 240 nM

## CC(F)(F)c1cc(NC(=O)Nc2ccc(Oc3ccnc(NC(=O)C4CC4)c3)cc2)ccc1Cl [Exe. 149]
[1]
  IC50: 25.4 nM
[2]
  IC50: 38 nM
[3]; [5]
  IC50: 25.4 nM
[4]; [6]
  IC50: 800 nM

## O=C(Nc1ccc(Oc2ccnc(NC(=O)C3CC3)c2)cc1)Nc1ccc2c(c1)C(F)(F)CCO2 [Exe. 151]
[1]
  IC50: 4.5 nM
[2]
  IC50: 3.3 nM
[3]; [5]
  IC50: 3.6 nM
[4]; [6]
  IC50: 608 nM

## N#Cc1cc(NC(=O)Nc2ccc(Oc3ccnc(NC(=O)C4CC4)c3)cc2)cc(C(F)(F)F)c1 [Exe. 152]
[1]
  IC50: 7.1 nM
[2]
  IC50: 72 nM
[3]; [5]
  IC50: 33 nM
[4]; [6]
  IC50: 390 nM

## O=C(Nc1ccc(Oc2ccnc(NC(=O)C3CC3)c2)c(F)c1)Nc1ccc(F)c(C(F)(F)F)c1 [Exe. 153]
[1]
  IC50: 15.2 nM
[2]
  IC50: 32 nM
[3]; [5]
  IC50: 23 nM
[4]; [6]
  IC50: 735 nM

## O=C(Nc1ccc(Oc2ccnc(NC(=O)C3CC3)c2)c(F)c1)Nc1cc(C(F)(F)F)ccc1F [Exe. 156]
[1]
  IC50: 8.3 nM
[2]
  IC50: 37 nM
[3]; [5]
  IC50: 37.7 nM
[4]; [6]
  IC50: 52 nM

## O=C(Nc1ccc(Oc2ccnc(NC(=O)C3CC3)c2)c(F)c1)Nc1cc(C(F)(F)F)ccc1Cl [Exe. 157]
[1]
  IC50: 5.9 nM
[2]
  IC50: 43 nM
[3]; [5]
  IC50: 34.7 nM
[4]; [6]
  IC50: 156 nM

## O=C(Nc1cc(-c2ccncc2)cc(C(F)(F)F)c1)Nc1ccc(Oc2ccnc(NC(=O)C3CC3)c2)c(F)c1 [Exe. 159]
[1]
  IC50: 8 nM
[2]
  IC50: 35.4 nM
[3]; [5]
  IC50: 44.3 nM
[4]; [6]
  IC50: 642 nM

## CN1CCC(Nc2cc(NC(=O)Nc3ccc(Oc4ccnc(NC(=O)C5CC5)c4)c(F)c3)cc(C(F)(F)F)c2)CC1 [Exe. 161]
[1]
  IC50: 12.2 nM
[2]
  IC50: 7.9 nM
[3]; [5]
  IC50: 86.9 nM
[4]; [6]
  IC50: 1340 nM

## CC1CN(c2cc(NC(=O)Nc3ccc(Oc4ccnc(NC(=O)C5CC5)c4)c(F)c3)cc(C(F)(F)F)c2)CCO1 (stereo not shown) [Exe. 162]
[1]
  IC50: 6.8 nM
[2]
  IC50: 22.5 nM
[3]; [5]
  IC50: 30.6 nM
[4]; [6]
  IC50: 330 nM

## C=CC(=O)Nc1cc(NC(=O)Nc2ccc(Oc3ccnc(NC(=O)C4CC4)c3)c(F)c2)cc(C(F)(F)F)c1 [Exe. 163]
[1]
  IC50: 11.6 nM
[2]
  IC50: 24 nM
[3]; [5]
  IC50: 32.9 nM
[4]; [6]
  IC50: 998 nM
